Entries after “also recorded” stand apart in the source; their conditions may differ.
Columns and labels:
[1] = system: STAM model of non-alcoholic steatohepatitis; assay: STAM model of NASH: Alpha-SMA immunostaining; type: in vivo, mice; conditions: for Alpha-SMA-positive area (mean ± SD): n = 8
Experimental: NASH was induced in 48 male mice by a single subcutaneous injection of 200 μg streptozotocin (STZ, Sigma-Aldrich, USA) solution 2 days after birth and feeding with high fat diet (HFD, 57 kcal % fat, Cat #HFD32, CLEA Japan, Inc., Japan) after 4 weeks of age. Compound A was administered at 3 dose levels of 10, 20 and 40 mg/kg once daily from 6 to 9 weeks of age. Compound B was administered at a dose of 40 mg/kg once daily from 6 to 9 weeks of age. Telmisartan was administered at a dose of 10 mg/kg once daily from 6 to 9 weeks of age. […] (Table 9 herein after)

[2] = system: monocrotaline model of pulmonary arterial hypertension; assay: Rat monocrotaline model of pulmonary arterial hypertension: mean pulmonary pressure; type: in vivo; conditions: for Effect on pulmonary pressure: pulmonary hypertension induced by monocrotaline; for Mean Pulmonary Pressure: MCT
Experimental: • 1. The experimental trace to be analyzed is opened in Clampfit. • 2. Right atria pressure is recorded for 1 minute • 3. PAP recorded continuously for at least 1 minute or until loss of signal, is used to extract the mean, diastolic, and systolic pulmonary pressure. • 4. The systemic arterial pressure (SAP) recorded continuously is used to extract the mean, diastolic and systolic arterial pressure. • 5. At the end of the hemodynamic parameters recording, the right and left ventricle including the septum and the lung lobes is excised to determine wet weights. • 6. Each parameter is compiled for each group and presented in bar graphs with appropriate statistical analysis.
The appropriate amount of monocrotaline is weighed and ⅓ of the correct volume of 1.0N HCl is added and mixed to ensure monocrotaline solubilisation. The solution is then neutralized with ⅓ of the correct volume of 1.0 N NaOH. The pH of the solution is checked with a pH indicator paper/strip or an electronic pH meter and adjusted to neutral as necessary; the final volume is completed with water for injection to obtain a solution of 20 mg/mL. The monocrotaline solution is injected subcutaneously, over the shoulders, into the loose skin over the neck, to each rat at 3 mL/kg of body weight (dose is 60 mg/kg).
Compound A was administered as a suspension in the vehicle. To reach the required concentrations, compound A was grounded to a fine powder, using a mortar and pestle, and then mixed with 20% (final volume) of vehicle A1 until a suspension was achieved. 80% of vehicle A2 was then added to the suspension under magnetic stirring.
The appropriate amount of Sildenafil is weighed and appropriate volume of distillated water is added to obtain suspension at 5 mg/mL. The suspension is mixed with a stir bar for 30-60 minutes until a homogenous suspension is achieved. Care is taken to maintain a uniform suspension (stirring continuously) whilst doses are being drawn up into gavage syringes. One gavage syringe is filled at a time and administered before filling the next syringe. The solutions are stored refrigerated at 2 to 8° C. and protected from light. The expiration date is set at 7 days after preparation.
Animals from Groups 2 to 5 (see Table 13) receive a single subcutaneous injection of monocrotaline (60 mg/kg) solution on Day 0 and returned to their cages. Animals from Group 1 receive one subcutaneous injection vehicle for MCT on Day 0 and returned to their respective cages.
Treatment with the compound A, sildenafil or vehicle is administered as of Day 7 (Groups 2-5) as scheduled and described in Table 13. The Groups 2-4 receive a single dose per day. The reference group 5 receives sildenafil twice a day. Food and water are given ad libitum. Daily observation of the behaviour and general health status of the animals is done. Weekly body weight is taken.
Surgical Instrumentation and Measurement of Hemodynamic and Functional Parameters in Efficacy Study Animals • 1. On the selected day of surgery, rats are anaesthetized with a mixture of 2 to 2.5% isoflurane USP (Abbot Laboratories, Montreal, Canada) in oxygen, and placed on a heating pad to maintain body temperature. • 2. Rats are tracheotomized and immediately ventilated by means of a positive-pressure rodent respirator set at ≈10 ml/kg bodyweight at a frequency of 65-70 strokes/min. • 3. Lead II ECG contact electrodes is placed on the rat to continuously monitor the ECG during the surgical procedure. • 4. A cannula connected to a pressure transducer is inserted into the left femoral artery to measure the arterial blood pressure. • 5. A cannula connected to a pressure transducer is inserted into the right atria through the right jugular vein to measure the right atria pressure. • 6. The heart is exposed through a sternotomy and a 20GA 1.16 in Insyte is introduced into the right ventricle and rapidly hooked up to a saline filled PE-50 catheter connected to a transducer. • 7. […]

[3] = system: STAM model of non-alcoholic steatohepatitis; assay: STAM model of NASH: HE staining and NAFLD Activity score; type: in vivo, mice; parameters: key to NAFLD Activity score (mean ± SD): NAFLD Activity score per Kleiner et al. 2005 criteria
Experimental: NASH was induced in 48 male mice by a single subcutaneous injection of 200 μg streptozotocin (STZ, Sigma-Aldrich, USA) solution 2 days after birth and feeding with high fat diet (HFD, 57 kcal % fat, Cat #HFD32, CLEA Japan, Inc., Japan) after 4 weeks of age. Compound A was administered at 3 dose levels of 10, 20 and 40 mg/kg once daily from 6 to 9 weeks of age. Compound B was administered at a dose of 40 mg/kg once daily from 6 to 9 weeks of age. Telmisartan was administered at a dose of 10 mg/kg once daily from 6 to 9 weeks of age. For HE staining, sections were cut from paraffin blocks of liver tissue prefixed in Bouin's solution and stained with Lillie-Mayer's Hematoxylin (Muto Pure Chemicals Co., Ltd., Japan) and eosin solution (FUJIFILM Wako Pure Chemical Corporation). NAFLD Activity score (NAS) was calculated according to the criteria of Kleiner (Kleiner D E. et al., Hepatology, 2005; 41:1313). To visualize collagen deposition, Bouin's fixed liver sections were stained using picro-Sirius red solution (Waldeck, Germany). For quantitative analysis of fibrosis area, bright field images of Sirius red-stained sections were captured around the central vein using a digital camera (DFC295; Leica, Germany) at 200-fold magnification, and the positive areas in 5 fields/section were measured using ImageJ software (National Institute of Health, USA).

[4] = summary statement, dose not stated
[5] = 10 mg/kg PO QD, 6-9 wks of age (Compound A low, Telmisartan groups), n = 8
[6] = 20 mg/kg PO QD, 6-9 wks of age (Compound A middle group), n = 8
[7] = 40 mg/kg PO QD, 6-9 wks of age (Compound A high, Compound B groups), n = 8

SMILES: FC(F)(F)Oc1ccc(Nc2ccc3cccc(Cl)c3n2)cc1 [8-Chloro-N-(4-(trifluoromethoxy)phenyl)quinolin-2-amine]
- Alpha-SMA in the liver [1, 4]: decreases
- Effect on pulmonary pressure ([2]; female rat): reduces significantly
- NAS compared with the Vehicle group [3, 4]: decreasing trend

SMILES: FC(F)(F)Oc1ccc(Nc2ccc3cccc(Cl)c3n2)cc1 [Compound A, 8-Chloro-N-(4-(trifluoromethoxy)phenyl)quinolin-2-amine]
- Alpha-SMA-positive area (mean ± SD) ([1]; 10 mg/kg PO QD, 6-9 wks of age (Compound A low, Telmisartan groups)): 1.39 ± 1.25%
- Alpha-SMA-positive area (mean ± SD) ([1]; 20 mg/kg PO QD, 6-9 wks of age (Compound A middle group)): 0.91 ± 0.55%
- Alpha-SMA-positive area compared with the Vehicle group ([1]; 40 mg/kg PO QD (Compound A high group)): tended to decrease
- Alpha-SMA-positive area (mean ± SD) ([1]; 40 mg/kg PO QD, 6-9 wks of age (Compound A high, Compound B groups)): 0.85 ± 0.41%
- Mean Pulmonary Pressure ([2]; female rat, 70 mg/kg QD gavage Day 7 to Day 28, n = 7): 22.2 mmHg
- Mean Pulmonary Pressure ([2]; female rat, 120 mg/kg QD gavage Day 7 to Day 28, n = 11): 16.9 mmHg
- Effect on pulmonary pressure ([2]; female rat): reduces significantly
- Effect on pulmonary pressure ([2]; male rat): no effect
- NAS compared with the Vehicle group ([3]; 10 mg/kg PO QD (Compound A low, Telmisartan groups)): tended to decrease; also recorded: decreasing trend
- Hepatocyte ballooning score 0 (None), number of mice [3, 5]: 3
- Hepatocyte ballooning score 1 (Few balloon cells), number of mice [3, 5]: 2
- Hepatocyte ballooning score 2 (Many cells/prominent ballooning), number of mice [3, 5]: 3
- Lobular inflammation score 2 (2-4 foci/200×), number of mice [3, 5]: 7
- Lobular inflammation score 3 (>4 foci/200×), number of mice [3, 5]: 1
- NAFLD Activity score (mean ± SD) [3, 5]: 3.6 ± 1.1
- Steatosis score 0 (<5%), number of mice [3, 5]: 4
- Steatosis score 1 (5-33%), number of mice [3, 5]: 4
- NAS compared with the Vehicle group ([3]; 20 mg/kg PO QD (Compound A middle group)): tended to decrease; also recorded: decreasing trends
- Hepatocyte ballooning score 0 (None), number of mice [3, 6]: 3
- Hepatocyte ballooning score 1 (Few balloon cells), number of mice [3, 6]: 3
- Hepatocyte ballooning score 2 (Many cells/prominent ballooning), number of mice [3, 6]: 2
- Lobular inflammation score 2 (2-4 foci/200×), number of mice [3, 6]: 6
- Lobular inflammation score 3 (>4 foci/200×), number of mice [3, 6]: 2
- NAFLD Activity score (mean ± SD) [3, 6]: 3.4 ± 1.2
- Steatosis score 0 (<5%), number of mice [3, 6]: 6
- Steatosis score 1 (5-33%), number of mice [3, 6]: 2
- NAS compared with the Vehicle group ([3]; 40 mg/kg PO QD (Compound A high, Compound B groups)): tended to decrease; also recorded: decreasing trend
- Hepatocyte ballooning score 0 (None), number of mice [3, 7]: 5
- Hepatocyte ballooning score 1 (Few balloon cells), number of mice [3, 7]: 2
- Hepatocyte ballooning score 2 (Many cells/prominent ballooning), number of mice [3, 7]: 1
- Lobular inflammation score 1 (<2 foci/200×), number of mice [3, 7]: 1
- Lobular inflammation score 2 (2-4 foci/200×), number of mice [3, 7]: 2
- Lobular inflammation score 3 (>4 foci/200×), number of mice [3, 7]: 5
- NAFLD Activity score (mean ± SD) [3, 7]: 3.4 ± 1.3
- Steatosis score 0 (<5%), number of mice [3, 7]: 5
- Steatosis score 1 (5-33%), number of mice [3, 7]: 3
- Overall effect in this NASH model ([3]; conclusion of the study): potential anti-NAS and anti-fibrosis effects
- NAS compared with the Vehicle group [3, 4]: decreasing trends

From patent publication US11992499B2, “Quinoline derivatives for use in the treatment of inflammation diseases” (ABIVAX, priority 2018, dated 2024)
